System: MV-4-11 cells
Experiment: Gene expression microarray analysis (Affymetrix PrimeView) and GSEA
Assay type: cell-based, human
Design: RFU PODN (11730768_x_at) / Fold change /veh PODN (11730768_x_at) / RFU LINC00158 (11744669_a_at) / Fold change /veh LINC00158 (11744669_a_at) / RFU DUSP10 (11751237_a_at) / Fold change /veh DUSP10 (11751237_a_at) / RFU ID3 (11757404_x_at) / Fold change /veh ID3 (11757404_x_at) / RFU PLEKHG5 (11737974_s_at) / Fold change /veh PLEKHG5 (11737974_s_at) / RFU LRRC4B (11730491_at) / Fold change /veh LRRC4B (11730491_at) / RFU GIMAP4 (11747438_a_at) / Fold change /veh GIMAP4 (11747438_a_at) / RFU KRT8 (11758183_x_at) / Fold change /veh KRT8 (11758183_x_at) / RFU CNN1 (11734310_a_at) / Fold change /veh CNN1 (11734310_a_at) / RFU VPS37D (11726825_at) / Fold change /veh VPS37D (11726825_at) / RFU C10orf10 (11716522_x_at) / Fold change /veh C10orf10 (11716522_x_at) / RFU KIR2DL2 /// KIR2DL4 /// KIR2DL5A /// KIR2DL5B /// KIR2DS1 /// KIR2DS2 /// KIR2DS3 /// KIR2DS4 /// KIR3DL3 /// KIR3DL3 /// KIR3DS1 (11738374_at) / Fold change /veh KIR2DL2 /// KIR2DL4 /// KIR2DL5A /// KIR2DL5B /// KIR2DS1 /// KIR2DS2 /// KIR2DS3 /// KIR2DS4 /// KIR3DL3 /// KIR3DL3 /// KIR3DS1 (11738374_at) / RFU C1QL1 (11718748_at) / Fold change /veh C1QL1 (11718748_at) / RFU TMPRSS4 (11747572_a_at) / Fold change /veh TMPRSS4 (11747572_a_at) / RFU HAMP (11756126_x_at) / Fold change /veh HAMP (11756126_x_at) / RFU RNFT2 (11725882_a_at) / Fold change /veh RNFT2 (11725882_a_at) / RFU NR4A2 (11747474_a_at) / Fold change /veh NR4A2 (11747474_a_at) / RFU ABCC12 (11746883_a_at) / Fold change /veh ABCC12 (11746883_a_at) / RFU TMEM136 (11760407_x_at) / Fold change /veh TMEM136 (11760407_x_at) / RFU CLDN22 /// WWC2 (11732394_at) / Fold change /veh CLDN22 /// WWC2 (11732394_at) / RFU HLA-DPB1 (11760878_x_at) / Fold change /veh HLA-DPB1 (11760878_x_at) / RFU SPINT1 (11716480_a_at) / Fold change /veh SPINT1 (11716480_a_at) / RFU GAP43 (11754022_s_at) / Fold change /veh GAP43 (11754022_s_at) / RFU A4GNT (11735810_at) / Fold change /veh A4GNT (11735810_at) / RFU PRB3 (11715151_x_at) / Fold change /veh PRB3 (11715151_x_at) / RFU TUBB4B (11761932_at) / Fold change /veh TUBB4B (11761932_at) / RFU CAPN14 (11732068_a_at) / Fold change /veh CAPN14 (11732068_a_at) / RFU TMCC2 (11721928_a_at) / Fold change /veh TMCC2 (11721928_a_at) / RFU IRGQ (11745062_a_at) / Fold change /veh IRGQ (11745062_a_at) / RFU FAM174B (11720279_a_at) / Fold change /veh FAM174B (11720279_a_at) / RFU TMPRSS4 (11748680_a_at) / Fold change /veh TMPRSS4 (11748680_a_at) / RFU FAM212B (11763350_a_at) / Fold change /veh FAM212B (11763350_a_at) / RFU PLEKHG5 (11743358_a_at) / Fold change /veh PLEKHG5 (11743358_a_at) / RFU ZSCAN30 (11745921_a_at) / Fold change /veh ZSCAN30 (11745921_a_at) / RFU CMKLR1 (11741424_a_at) / Fold change /veh CMKLR1 (11741424_a_at) / RFU LOC101060620 /// MAPK8IP1 (11723275_at) / Fold change /veh LOC101060620 /// MAPK8IP1 (11723275_at) / RFU SPTSSB (11747773_x_at) / Fold change /veh SPTSSB (11747773_x_at) / RFU PRSS12 (11739890_at) / Fold change /veh PRSS12 (11739890_at) / RFU BIN1 (11741810_x_at) / Fold change /veh BIN1 (11741810_x_at) / RFU WNT11 (11732464_a_at) / Fold change /veh WNT11 (11732464_a_at) / RFU C10orf10 (11716521_a_at) / Fold change /veh C10orf10 (11716521_a_at) / RFU C5orf56 (11738089_at) / Fold change /veh C5orf56 (11738089_at) / RFU CYB561 (11721691_x_at) / Fold change /veh CYB561 (11721691_x_at) / RFU ANKRD19P (11752326_a_at) / Fold change /veh ANKRD19P (11752326_a_at) / RFU OR2T12 /// OR2T33 /// OR2T8 (11738714_s_at) / Fold change /veh OR2T12 /// OR2T33 /// OR2T8 (11738714_s_at) / RFU VCAN (11748164_a_at) / Fold change /veh VCAN (11748164_a_at) / RFU JSRP1 (11732532_at) / Fold change /veh JSRP1 (11732532_at) / RFU KRTAP10-11 (11738290_x_at) / Fold change /veh KRTAP10-11 (11738290_x_at) / RFU MYO3A (11730013_a_at) / Fold change /veh MYO3A (11730013_a_at) / RFU EBF3 (11725865_a_at) / Fold change /veh EBF3 (11725865_a_at) / RFU CAMK2N1 (11719241_x_at) / Fold change /veh CAMK2N1 (11719241_x_at) / RFU C5orf56 (11738088_a_at) / Fold change /veh C5orf56 (11738088_a_at) / RFU OLFML3 (11715873_a_at) / Fold change /veh OLFML3 (11715873_a_at) / RFU LOC100653217 /// NTM (11731650_a_at) / Fold change /veh LOC100653217 /// NTM (11731650_a_at) / RFU MAPK11 (11762145_a_at) / Fold change /veh MAPK11 (11762145_a_at) / RFU FIZ1 (11724087_x_at) / Fold change /veh FIZ1 (11724087_x_at) / RFU OASL (11726364_x_at) / Fold change /veh OASL (11726364_x_at) / RFU SOX15 (11748057_x_at) / Fold change /veh SOX15 (11748057_x_at) / RFU CD79A (11719716_a_at) / Fold change /veh CD79A (11719716_a_at) / RFU HIST1H1D (11736915_at) / Fold change /veh HIST1H1D (11736915_at) / RFU CASKIN2 (11723855_a_at) / Fold change /veh CASKIN2 (11723855_a_at) / RFU LOC730098 (11760151_x_at) / Fold change /veh LOC730098 (11760151_x_at) / RFU OR4N2 (11742367_at) / Fold change /veh OR4N2 (11742367_at) / RFU PRRT2 (11749266_a_at) / Fold change /veh PRRT2 (11749266_a_at) / RFU SNX32 (11753110_a_at) / Fold change /veh SNX32 (11753110_a_at) / RFU CDHR5 (11726645_a_at) / Fold change /veh CDHR5 (11726645_a_at) / RFU RCAN1 (11760418_a_at) / Fold change /veh RCAN1 (11760418_a_at) / RFU FAM167A (11723789_a_at) / Fold change /veh FAM167A (11723789_a_at) / RFU FAM26E (11764081_at) / Fold change /veh FAM26E (11764081_at) / RFU ISYNA1 (11749810_s_at) / Fold change /veh ISYNA1 (11749810_s_at) / RFU ACY1 (11761880_at) / Fold change /veh ACY1 (11761880_at) / RFU 11764098_at / Fold change /veh 11764098_at / RFU SAMD14 (11745864_x_at) / Fold change /veh SAMD14 (11745864_x_at) / RFU NPB (11741838_a_at) / Fold change /veh NPB (11741838_a_at) / RFU TMPRSS6 (11731388_a_at) / Fold change /veh TMPRSS6 (11731388_a_at) / RFU KRTAP10-2 (11738614_at) / Fold change /veh KRTAP10-2 (11738614_at) / RFU ARHGAP8 /// PRR5-ARHGAP8 (11727945_x_at) / Fold change /veh ARHGAP8 /// PRR5-ARHGAP8 (11727945_x_at) / RFU KRTAP5-7 /// NADSYN1 (11734609_at) / Fold change /veh KRTAP5-7 /// NADSYN1 (11734609_at) / RFU RASL12 (11751679_a_at) / Fold change /veh RASL12 (11751679_a_at) / RFU CDKN2B (11736163_a_at) / Fold change /veh CDKN2B (11736163_a_at) / RFU PRF1 (11729649_at) / Fold change /veh PRF1 (11729649_at) / RFU, ZNF638 /// ZNF638-IT1 / Fold change vs veh, ZNF638 /// ZNF638-IT1 / RFU, PANK3 / Fold change vs veh, PANK3 / RFU, SH3YL1 / Fold change vs veh, SH3YL1 / RFU, ZEB2 / Fold change vs veh, ZEB2 / RFU, NRIP1 / Fold change vs veh, NRIP1 / RFU, PTTG1IP / Fold change vs veh, PTTG1IP / RFU, CAPN2 / Fold change vs veh, CAPN2 / RFU, MED14 / Fold change vs veh, MED14 / RFU, SNORA58 / Fold change vs veh, SNORA58 / RFU, C1orf63 / Fold change vs veh, C1orf63 / RFU, LRRFIP1 / Fold change vs veh, LRRFIP1 / RFU, NDUFAF7 / Fold change vs veh, NDUFAF7 / RFU, SLC12A2 / Fold change vs veh, SLC12A2 / RFU, IBTK / Fold change vs veh, IBTK / RFU, ESF1 / Fold change vs veh, ESF1 / Fold change vs veh, TMEM50B / RFU, TAOK1 / Fold change vs veh, TAOK1 / RFU, ACBD3 / Fold change vs veh, ACBD3 / RFU, TMA16 / Fold change vs veh, TMA16 / RFU, RWDD3 / Fold change vs veh, RWDD3 / RFU, BCAT1 / Fold change vs veh, BCAT1 / RFU, EDEM3 / Fold change vs veh, EDEM3 / RFU, TMEM33 / Fold change vs veh, TMEM33 / RFU, WDR75 / Fold change vs veh, WDR75 / RFU, AHCTF1 / Fold change vs veh, AHCTF1 / RFU, TFRC / Fold change vs veh, TFRC / RFU, ZDHHC17 / Fold change vs veh, ZDHHC17 / RFU, NOM1 / Fold change vs veh, NOM1 / RFU, ARL8B / Fold change vs veh, ARL8B / RFU, ZBTB11 / Fold change vs veh, ZBTB11 / RFU, TAMM41 / Fold change vs veh, TAMM41 / RFU, KIAA1704 /// LOC100996395 / Fold change vs veh, KIAA1704 /// LOC100996395 / RFU, ING1 / Fold change vs veh, ING1 / RFU, TRMT61B / Fold change vs veh, TRMT61B / RFU, FUBP3 / Fold change vs veh, FUBP3 / RFU, TP53 / Fold change vs veh, TP53 / RFU, TNKS2 / Fold change vs veh, TNKS2 / RFU, ZFP14 / Fold change vs veh, ZFP14 / RFU, ACTR2 / Fold change vs veh, ACTR2 / RFU, PPP3R1 / Fold change vs veh, PPP3R1 / RFU, PIK3R1 / Fold change vs veh, PIK3R1 / RFU, HNRNPA1 / Fold change vs veh, HNRNPA1 / RFU, RNF170 / Fold change vs veh, RNF170 / RFU, ZNF28 / Fold change vs veh, ZNF28 / RFU, RNGTT / Fold change vs veh, RNGTT / RFU, OGT / Fold change vs veh, OGT / RFU, BRD1 / Fold change vs veh, BRD1 / RFU, MARS / Fold change vs veh, MARS / RFU, ZNF655 / Fold change vs veh, ZNF655 / RFU, FAHD1 / Fold change vs veh, FAHD1 / RFU, BDP1 / Fold change vs veh, BDP1 / RFU, LRRCC1 / Fold change vs veh, LRRCC1 / RFU, ARID1A / Fold change vs veh, ARID1A / RFU, ZNF146 / Fold change vs veh, ZNF146 / RFU, ZNF330 / Fold change vs veh, ZNF330 / RFU, GPN3 / Fold change vs veh, GPN3 / RFU, C9orf123 / Fold change vs veh, C9orf123 / RFU, N4BP2L2 / Fold change vs veh, N4BP2L2 / RFU, ARFIP1 / Fold change vs veh, ARFIP1 / RFU, FAM179B / Fold change vs veh, FAM179B / RFU, BCL10 / Fold change vs veh, BCL10 / RFU, UHRF1BP1L / Fold change vs veh, UHRF1BP1L / RFU, BET1 / Fold change vs veh, BET1 / RFU, CNOT2 / Fold change vs veh, CNOT2 / RFU, ZNF268 / Fold change vs veh, ZNF268 / Fold change vs veh, ZNF507 / RFU, DGCR2 / Fold change vs veh, DGCR2 / RFU, WDSUB1 / Fold change vs veh, WDSUB1 / Fold change vs veh, HSP90B1 /// MIR3652 / RFU, ADSS / Fold change vs veh, ADSS / RFU, GK / Fold change vs veh, GK / RFU, ZNF148 / Fold change vs veh, ZNF148 / RFU, TAF9 / Fold change vs veh, TAF9 / RFU, SLC1A5 / Fold change vs veh, SLC1A5 / RFU, SLMO2 / Fold change vs veh, SLMO2 / RFU, ABCC4 / Fold change vs veh, ABCC4 / RFU, LOC101060439 /// RAP1B / Fold change vs veh, LOC101060439 /// RAP1B / RFU, RFX7 / Fold change vs veh, RFX7 / RFU, GTPBP10 / Fold change vs veh, GTPBP10 / RFU, CNEP1R1 / Fold change vs veh, CNEP1R1 / RFU, BIVM-ERCC5 /// ERCC5 / Fold change vs veh, BIVM-ERCC5 /// ERCC5 / RFU, ILF3 / Fold change vs veh, ILF3 / RFU 11762660_at / Fold change /veh 11762660_at / RFU VCAN (11757783_s_at) / Fold change /veh VCAN (11757783_s_at) / RFU DDX43 (11728927_at) / Fold change /veh DDX43 (11728927_at) / RFU KRT8 (11758188_x_at) / Fold change /veh KRT8 (11758188_x_at) / RFU NKD1 (11759106_at) / Fold change /veh NKD1 (11759106_at) / RFU SRD5A1 (11742802_a_at) / Fold change /veh SRD5A1 (11742802_a_at) / RFU TPSAB1 /// TPSB2 (11721975_s_at) / Fold change /veh TPSAB1 /// TPSB2 (11721975_s_at) / RFU GSTM3 (11746129_a_at) / Fold change /veh GSTM3 (11746129_a_at) / RFU IL23R (11737362_x_at) / Fold change /veh IL23R (11737362_x_at) / RFU TMEM51 (11727254_a_at) / Fold change /veh TMEM51 (11727254_a_at) / RFU PIWIL2 (11732686_x_at) / Fold change /veh PIWIL2 (11732686_x_at) / RFU ORM1 (11744905_x_at) / Fold change /veh ORM1 (11744905_x_at) / RFU CCDC152 (11743942_at) / Fold change /veh CCDC152 (11743942_at) / RFU ECM1 (11717891_a_at) / Fold change /veh ECM1 (11717891_a_at) / RFU IL23R (11748794_a_at) / Fold change /veh IL23R (11748794_a_at) / RFU TNFAIP8L3 (11732012_x_at) / Fold change /veh TNFAIP8L3 (11732012_x_at) / RFU MBOAT4 (11741988_at) / Fold change /veh MBOAT4 (11741988_at) / RFU 11764193_at / Fold change /veh 11764193_at / RFU TMEM53 (11763286_at) / Fold change /veh TMEM53 (11763286_at) / RFU MAGEB2 (11727129_at) / Fold change /veh MAGEB2 (11727129_at) / RFU TMEM200A (11744735_a_at) / Fold change /veh TMEM200A (11744735_a_at) / RFU CCDC152 (11751479_a_at) / Fold change /veh CCDC152 (11751479_a_at) / RFU FAM211A (11726209_a_at) / Fold change /veh FAM211A (11726209_a_at) / RFU RGS16 (11746705_a_at) / Fold change /veh RGS16 (11746705_a_at) / RFU VCAN (11755009_s_at) / Fold change /veh VCAN (11755009_s_at) / RFU RHOB (11743442_s_at) / Fold change /veh RHOB (11743442_s_at) / RFU RGS16 (11720943_a_at) / Fold change /veh RGS16 (11720943_a_at) / RFU RGS16 (11720944_at) / Fold change /veh RGS16 (11720944_at) / RFU, VPS4B / Fold change vs veh, VPS4B / RFU, CREB1 / Fold change vs veh, CREB1 / RFU, DNAJC13 / Fold change vs veh, DNAJC13 / RFU, GNAQ / Fold change vs veh, GNAQ / RFU, CDK5R1 / Fold change vs veh, CDK5R1 / RFU, ZRANB3 / Fold change vs veh, ZRANB3 / RFU, CUL4A / Fold change vs veh, CUL4A / RFU, CCNY / Fold change vs veh, CCNY / RFU, UFL1 / Fold change vs veh, UFL1 / RFU, COG3 / Fold change vs veh, COG3 / RFU, DIAPH2 / Fold change vs veh, DIAPH2 / RFU, SKA2 / Fold change vs veh, SKA2 / RFU, AFF3 / Fold change vs veh, AFF3 / RFU, LMF1 / Fold change vs veh, LMF1 / RFU, IPO11 / Fold change vs veh, IPO11 / RFU, DFFB / Fold change vs veh, DFFB / RFU, FOXP1 / Fold change vs veh, FOXP1 / RFU, CARD8 / Fold change vs veh, CARD8 / RFU, STRN3 / Fold change vs veh, STRN3 / RFU, ADK / Fold change vs veh, ADK / RFU, RASSF2 / Fold change vs veh, RASSF2 / RFU, WIPF1 / Fold change vs veh, WIPF1 / RFU, LARP1B / Fold change vs veh, LARP1B / RFU, RASA1 / Fold change vs veh, RASA1 / RFU, RB1 / Fold change vs veh, RB1 / RFU, PPFIA1 / Fold change vs veh, PPFIA1 / RFU, MAT2A / Fold change vs veh, MAT2A / RFU, CCT5 / Fold change vs veh, CCT5 / RFU, WDR92 / Fold change vs veh, WDR92 / RFU, CUX1 / Fold change vs veh, CUX1 / RFU, TTC7A / Fold change vs veh, TTC7A / RFU, TMEM135 / Fold change vs veh, TMEM135 / RFU, DEPTOR / Fold change vs veh, DEPTOR / RFU, CPM / Fold change vs veh, CPM / RFU, DNAJB6 / Fold change vs veh, DNAJB6 / RFU, CACNA2D3 / Fold change vs veh, CACNA2D3 / RFU, DTX4 / Fold change vs veh, DTX4 / RFU, TFCP2 / Fold change vs veh, TFCP2 / RFU, GMCL1 /// GMCL1P1 / Fold change vs veh, GMCL1 /// GMCL1P1 / RFU, AEBP2 / Fold change vs veh, AEBP2 / RFU, SNHG1 /// SNORD22 /// SNORD25 /// SNORD26 /// SNORD27 /// SNORD28 /// SNORD29 /// SNORD31 / Fold change vs veh, SNHG1 /// SNORD22 /// SNORD25 /// SNORD26 /// SNORD27 /// SNORD28 /// SNORD29 /// SNORD31 / Fold change (Aza/veh), C12orf56 (ProbeSet 11735607_a_at) / Fold change (ACY-1035/veh), C12orf56 (ProbeSet 11735607_a_at) / Fold change (Aza/veh), FGFR1OP (ProbeSet 11751329_s_at) / Fold change (ACY-1035/veh), FGFR1OP (ProbeSet 11751329_s_at) / Fold change (Aza/veh), VPS36 (ProbeSet 11739960_a_at) / Fold change (ACY-1035/veh), VPS36 (ProbeSet 11739960_a_at) / RFU SYPL1 (11715823_x_at) / Fold change /veh SYPL1 (11715823_x_at) / RFU IGFBP7 (11715501_s_at) / Fold change /veh IGFBP7 (11715501_s_at) / RFU REEP3 (11722064_at) / Fold change /veh REEP3 (11722064_at) / RFU IGLL1 (11728026_x_at) / Fold change /veh IGLL1 (11728026_x_at): dose or concentration left out as unconfirmed
Conditions: ProbeSet 11753055_s_at; LIST B

How did the “RFU, LOC101060439 /// RAP1B” value turn out when `Nc1ccc(-c2cccs2)cc1NC(=O)c1ccc2c(c1)cc(C1CC1)n2CCN1CCOCC1` [ACY-1035] was run?
Its value is 639.03 RFU.
